Reference: US11292807B2 (OCEANS LTD., priority 2015, dated 2022)
Where two headings read alike, the source gives them in different places.

Experiments:
MDA-MB [1] = settings: MDA-MB
MDA-MB [2] = assay: cells; settings: Homo sapiens, read-out: Average cell viability, MDA-MB
PC3 = assay: CIMA assay, cell viability, PC3; settings: for Fold change in viability AVG: PC3
[3] = tested on: U373 (glioblastoma-astrocytoma); assay: CIMA assay, cell viability, U373; settings: for Fold change in viability AVG: U373
Protocol: (§1) Stock solutions of the extracts were prepared in dimethylsulfoxide (DMSO) at 10 mg/mL and stored in 200 μl aliquots at −20° C. until analysis. This preparation ensured that the DMSO delivered to cells in culture never exceeded 1%.
(§2) Prepared extracts were assessed following chronic exposure conditions in which cells were seeded at 2×10^3 cells/well (96 well-plate) and incubated with test compounds for 72 h. Each compound was evaluated over a range of concentrations (0, 10, 25, 50 or 100 μg/ml). Cell proliferation was initially assessed using a standard colorimetric indicator of metabolic activity (CIMA) assay. In this assay, tetrazole reduction was evaluated as a measure of metabolic function that evaluates mitochondrial activity to determine the extent of cell proliferation within a culture. This assay is based on the reduction of yellow tetrazolium salt to purple formazan by mitochondrial reductases enzyme in viable cells, resulting in a color changed that confers a change in absorbance.

[4] = tested on: SKOV3 (ovarian adenocarcinoma); assay: CIMA assay, cell viability, SKOV3; settings: for Fold change in viability AVG: SKOV
Protocol: as §1, §2

[5] = tested on: THP-1 (acute monocytic leukemia); assay: CIMA assay, cell viability, THP-1; settings: for Fold change in viability AVG: THP-1
[6] = CIMA assay, cell viability, CCD1079SK; settings: human, Average cell viability, CCD
[7] = tested on: CCD1079SK (fibroblast, noncancerous but proliferating); assay: CIMA assay, cell viability, CCD1079SK; settings: CCD
A549 (lung carcinoma) = assay: CIMA assay (colorimetric indicator of metabolic activity), cell viability, A549; settings: for Fold change in viability AVG: A549

CC/C=C\C/C=C\C/C=C\C/C=C\CCC(=O)OC(COC(=O)CCCCCCC/C=C\C/C=C\C/C=C\CC)COC1OC(CO)C(O)C(O)C1O (stereo not shown) [Compound 14, MGDG C18:3/C16:4]
MDA-MB AVG (MDA-MB [1]; sample at 1 ug/mL): 1.13 | MDA-MB AVG (MDA-MB [1]; sample at 10 ug/mL): 1.11 | MDA-MB AVG (MDA-MB [1]; sample at 50 ug/mL): 0.74 | MDA-MB AVG (MDA-MB [1]; sample at 100 ug/mL): 0.20 | Fold change in viability AVG (MDA-MB [1]; 1 ug/mL): 1.13 | Fold change in viability AVG (MDA-MB [1]; 10 ug/mL): 1.11 | Fold change in viability AVG (MDA-MB [1]; 50 ug/mL): 0.74 | Fold change in viability AVG (MDA-MB [1]; 100 ug/mL): 0.20 | viability at 1 µg/mL (MDA-MB [2]; 1 ug/mL): 104% | viability at 10 µg/mL (MDA-MB [2]; 10 ug/mL): 102% | viability at 50 µg/mL (MDA-MB [2]; 50 ug/mL): 68% | viability at 100 µg/mL (MDA-MB [2]; 100 ug/mL): 18% | viability at 1 µg/mL (PC3; Homo sapiens, PC-3, read-out: Average cell viability, PC3, 1 ug/mL): 103% | viability at 10 µg/mL (PC3; Homo sapiens, PC-3, read-out: Average cell viability, PC3, 10 ug/mL): 98% | viability at 50 µg/mL (PC3; Homo sapiens, PC-3, read-out: Average cell viability, PC3, 50 ug/mL): 66% | viability at 100 µg/mL (PC3; Homo sapiens, PC-3, read-out: Average cell viability, PC3, 100 ug/mL): 12% | PC3 AVG (PC3; PC3, sample at 1 ug/mL): 1.07 | PC3 AVG (PC3; PC3, sample at 10 ug/mL): 1.01 | PC3 AVG (PC3; PC3, sample at 50 ug/mL): 0.68 | PC3 AVG (PC3; PC3, sample at 100 ug/mL): 0.13 | Fold change in viability AVG (PC3; 1 ug/mL): 1.07 | Fold change in viability AVG (PC3; 10 ug/mL): 1.01 | Fold change in viability AVG (PC3; 50 ug/mL): 0.68 | Fold change in viability AVG (PC3; 100 ug/mL): 0.13 | viability at 1 µg/mL ([3]; Homo sapiens, U373 MG, read-out: Average cell viability, U373, 1 ug/mL): 109% | viability at 10 µg/mL ([3]; Homo sapiens, U373 MG, read-out: Average cell viability, U373, 10 ug/mL): 100% | viability at 50 µg/mL ([3]; Homo sapiens, U373 MG, read-out: Average cell viability, U373, 50 ug/mL): 41% | viability at 100 µg/mL ([3]; Homo sapiens, U373 MG, read-out: Average cell viability, U373, 100 ug/mL): 9% | U373 AVG ([3]; U373, sample at 1 ug/mL): 1.10 | U373 AVG ([3]; U373, sample at 10 ug/mL): 1.02 | U373 AVG ([3]; U373, sample at 50 ug/mL): 0.42 | U373 AVG ([3]; U373, sample at 100 ug/mL): 0.09 | Fold change in viability AVG ([3]; 1 ug/mL): 1.10 | Fold change in viability AVG ([3]; 10 ug/mL): 1.02 | Fold change in viability AVG ([3]; 50 ug/mL): 0.42 | Fold change in viability AVG ([3]; 100 ug/mL): 0.09 | viability at 1 µg/mL ([4]; Homo sapiens, SK-OV-3, read-out: Average cell viability, SKOV, 1 ug/mL): 109% | viability at 10 µg/mL ([4]; Homo sapiens, SK-OV-3, read-out: Average cell viability, SKOV, 10 ug/mL): 97% | viability at 50 µg/mL ([4]; Homo sapiens, SK-OV-3, read-out: Average cell viability, SKOV, 50 ug/mL): 92% | viability at 100 µg/mL ([4]; Homo sapiens, SK-OV-3, read-out: Average cell viability, SKOV, 100 ug/mL): 67% | Fold change in viability AVG ([4]; 1 ug/mL): 1.17 | Fold change in viability AVG ([4]; 10 ug/mL): 1.05 | Fold change in viability AVG ([4]; 50 ug/mL): 0.89 | Fold change in viability AVG ([4]; 100 ug/mL): 0.72 | viability at 1 µg/mL ([5]; Homo sapiens, THP-1, read-out: Average cell viability, THP-1, 1 ug/mL): 99% | viability at 10 µg/mL ([5]; Homo sapiens, THP-1, read-out: Average cell viability, THP-1, 10 ug/mL): 100% | viability at 50 µg/mL ([5]; Homo sapiens, THP-1, read-out: Average cell viability, THP-1, 50 ug/mL): 62% | viability at 100 µg/mL ([5]; Homo sapiens, THP-1, read-out: Average cell viability, THP-1, 100 ug/mL): 51% | THP-1 AVG ([5]; THP-1, sample at 1 ug/mL): 1.13 | THP-1 AVG ([5]; THP-1, sample at 10 ug/mL): 1.14 | THP-1 AVG ([5]; THP-1, sample at 50 ug/mL): 0.70 | THP-1 AVG ([5]; THP-1, sample at 100 ug/mL): 0.58 | Fold change in viability AVG ([5]; 1 ug/mL): 1.12 | Fold change in viability AVG ([5]; 10 ug/mL): 1.14 | Fold change in viability AVG ([5]; 50 ug/mL): 0.70 | Fold change in viability AVG ([5]; 100 ug/mL): 0.58 | viability at 72 h, 1 ug/mL ([6]; CCD1079SK fibroblast cells (noncancerous, proliferating), 1 ug/mL): 102% | viability at 72 h, 10 ug/mL ([6]; CCD1079SK fibroblast cells (noncancerous, proliferating), 10 ug/mL): 96% | viability at 72 h, 50 ug/mL ([6]; CCD1079SK fibroblasts (noncancerous, proliferating), 50 ug/mL): 49% | viability at 72 h, 100 ug/mL ([6]; CCD1079SK fibroblasts (noncancerous, proliferating), 100 ug/mL): 19% | Fold change in viability AVG ([7]; 1 ug/mL): 1.12 | Fold change in viability AVG ([7]; 10 ug/mL): 1.05 | Fold change in viability AVG ([7]; 50 ug/mL): 0.54 | Fold change in viability AVG ([7]; 100 ug/mL): 0.21 | A549 AVG (A549 (lung carcinoma); A549, sample at 1 ug/mL): 1.15 | A549 AVG (A549 (lung carcinoma); A549, sample at 10 ug/mL): 1.18 | A549 AVG (A549 (lung carcinoma); A549, sample at 50 ug/mL): 1.03 | A549 AVG (A549 (lung carcinoma); A549, sample at 100 ug/mL): 0.86 | Fold change in viability AVG (A549 (lung carcinoma); 1 ug/mL): 1.15 | Fold change in viability AVG (A549 (lung carcinoma); 10 ug/mL): 1.18 | Fold change in viability AVG (A549 (lung carcinoma); 50 ug/mL): 1.03 | Fold change in viability AVG (A549 (lung carcinoma); 100 ug/mL): 0.86 | viability at 1 µg/mL (A549 (lung carcinoma); Homo sapiens, A549, read-out: Average cell viability, A549, 1 ug/mL): 99% | viability at 10 µg/mL (A549 (lung carcinoma); Homo sapiens, A549, read-out: Average cell viability, A549, 10 ug/mL): 101% | viability at 50 µg/mL (A549 (lung carcinoma); Homo sapiens, A549, read-out: Average cell viability, A549, 50 ug/mL): 88% | viability at 100 µg/mL (A549 (lung carcinoma); Homo sapiens, A549, read-out: Average cell viability, A549, 100 ug/mL): 74%
